Test results as given in ChEMBL document CHEMBL5131391, “One-pot three-component synthesis of novel pyrazolo[3,4-b]pyridines as potent antileukemic agents” (Eur J Med Chem, 2022).
Calls of active or inactive are those of the source. The calls are words filed in the database; no cut-off is given here.

Tests used:
SNB-75 = experiment: Cytostatic activity in human SNB-75 cells assessed as tumor growth inhibition measured after 48 hrs by NCI protocol based SRB assay; assay type: functional
MDA-MB-435 [1] = experiment: Cytostatic activity in human MDA-MB-435 cells assessed as tumor growth inhibition measured after 48 hrs by NCI protocol based SRB assay; assay type: functional
SW-620 [2] = experiment: Antiproliferative activity against human SW-620 cells assessed as growth inhibition measured after 48 hrs by NCI protocol based SRB assay; assay type: functional
RPMI-8226 [3] = experiment: Cytostatic activity in human RPMI-8226 cells assessed as tumor growth inhibition measured after 48 hrs by NCI protocol based SRB assay; assay type: functional
IGROV-1 = experiment: Antiproliferative activity against human IGROV-1 cells assessed as growth inhibition measured after 48 hrs by NCI protocol based SRB assay; assay type: functional
LOX IMVI = experiment: Antiproliferative activity against human LOX IMVI cells assessed as growth inhibition measured after 48 hrs by NCI protocol based SRB assay; assay type: functional
HOP-62 = experiment: Cytostatic activity in human HOP-62 cells assessed as tumor growth inhibition measured after 48 hrs by NCI protocol based SRB assay; assay type: functional
786-0 [4] = experiment: Antiproliferative activity against human 786-0 cells assessed as growth inhibition measured after 48 hrs by NCI protocol based SRB assay; assay type: functional
SF-268 [5] = experiment: Cytostatic activity in human SF-268 cells assessed as tumor growth inhibition measured after 48 hrs by NCI protocol based SRB assay; assay type: functional
SF-268 [6] = experiment: Antiproliferative activity against human SF-268 cells assessed as growth inhibition measured after 48 hrs by NCI protocol based SRB assay; assay type: functional
SW-620 [7] = experiment: Cytostatic activity in human SW-620 cells assessed as tumor growth inhibition measured after 48 hrs by NCI protocol based SRB assay; assay type: functional
EKVX = experiment: Cytostatic activity in human EKVX cells assessed as tumor growth inhibition measured after 48 hrs by NCI protocol based SRB assay; assay type: functional
TK-10 = experiment: Cytostatic activity in human TK-10 cells assessed as tumor growth inhibition measured after 48 hrs by NCI protocol based SRB assay; assay type: functional
RPMI-8226 [8] = experiment: Antiproliferative activity against human RPMI-8226 cells assessed as growth inhibition measured after 48 hrs by NCI protocol based SRB assay; assay type: functional
HOP-92 [9] = experiment: Antiproliferative activity against human HOP-92 cells assessed as growth inhibition measured after 48 hrs by NCI protocol based SRB assay; assay type: functional
HCT-116 = experiment: Cytostatic activity in human HCT-116 cells assessed as tumor growth inhibition measured after 48 hrs by NCI protocol based SRB assay; assay type: functional
OVCAR-5 = experiment: Cytostatic activity in human OVCAR-5 cells assessed as tumor growth inhibition measured after 48 hrs by NCI protocol based SRB assay; assay type: functional
NCI-H322M = experiment: Antiproliferative activity against human NCI-H322M cells assessed as growth inhibition measured after 48 hrs by NCI protocol based SRB assay; assay type: functional
DU-145 = experiment: Cytostatic activity in human DU-145 cells assessed as tumor growth inhibition measured after 48 hrs by NCI protocol based SRB assay; assay type: functional
T47D = experiment: Antiproliferative activity against human T47D cells assessed as growth inhibition measured after 48 hrs by NCI protocol based SRB assay; assay type: functional
HOP-92 [10] = experiment: Cytostatic activity in human HOP-92 cells assessed as tumor growth inhibition measured after 48 hrs by NCI protocol based SRB assay; assay type: functional
SF-539 = experiment: Antiproliferative activity against human SF-539 cells assessed as growth inhibition measured after 48 hrs by NCI protocol based SRB assay; assay type: functional
UACC-257 = experiment: Cytostatic activity in human UACC-257 cells assessed as tumor growth inhibition measured after 48 hrs by NCI protocol based SRB assay; assay type: functional
SK-MEL-5 = experiment: Antiproliferative activity against human SK-MEL-5 cells assessed as growth inhibition measured after 48 hrs by NCI protocol based SRB assay; assay type: functional
MDA-MB-435 [11] = experiment: Antiproliferative activity against human MDA-MB-435 cells assessed as growth inhibition measured after 48 hrs by NCI protocol based SRB assay; assay type: functional
786-0 [12] = experiment: Cytostatic activity in human 786-0 cells assessed as tumor growth inhibition measured after 48 hrs by NCI protocol based SRB assay; assay type: functional
U-251 = experiment: Cytostatic activity in human U-251 cells assessed as tumor growth inhibition measured after 48 hrs by NCI protocol based SRB assay; assay type: functional
NCI-H226 = experiment: Antiproliferative activity against human NCI-H226 cells assessed as growth inhibition measured after 48 hrs by NCI protocol based SRB assay; assay type: functional
MOLT-4 = experiment: Antiproliferative activity against human MOLT-4 cells assessed as growth inhibition measured after 48 hrs by NCI protocol based SRB assay; assay type: functional
MDA-MB-231 = experiment: Cytostatic activity in human MDA-MB-231 cells assessed as tumor growth inhibition measured after 48 hrs by NCI protocol based SRB assay; assay type: functional
SN12C = experiment: Antiproliferative activity against human SN12C cells assessed as growth inhibition measured after 48 hrs by NCI protocol based SRB assay; assay type: functional
UO-31 = experiment: Cytostatic activity in human UO-31 cells assessed as tumor growth inhibition measured after 48 hrs by NCI protocol based SRB assay; assay type: functional
M14 = experiment: Antiproliferative activity against human M14 cells assessed as growth inhibition measured after 48 hrs by NCI protocol based SRB assay; assay type: functional
HCT-15 = experiment: Cytostatic activity in human HCT-15 cells assessed as tumor growth inhibition measured after 48 hrs by NCI protocol based SRB assay; assay type: functional
BT-549 = experiment: Antiproliferative activity against human BT-549 cells assessed as growth inhibition measured after 48 hrs by NCI protocol based SRB assay; assay type: functional
KM12 = experiment: Antiproliferative activity against human KM12 cells assessed as growth inhibition measured after 48 hrs by NCI protocol based SRB assay; assay type: functional
OVCAR-3 = experiment: Cytostatic activity in human OVCAR-3 cells assessed as tumor growth inhibition measured after 48 hrs by NCI protocol based SRB assay; assay type: functional
RS4-11 [13] = experiment: Downregulation of MEIS1 protein expression in human RS4-11 cells at 5 to 20 uM measured after 24 hrs by Western blot analysis; assay type: functional, cell-based; settings: dose 5-20 µM
RS4-11 [14] = experiment: Induction of cell cycle arrest in human RS4-11 cells assessed as accumulation of cells in subG1 phase at 1.25 to 10 uM measured after 72 hrs by PI staining based flow cytometry analysis; assay type: functional; settings: dose 1.25-10 µM
[15] = read-out: LC50 (the source's name)

Work on `N#Cc1c(-c2ccccc2)nc2c(c(-c3ccccc3)nn2-c2ccccc2)c1-c1ccc(O)cc1` yielded a TGI (SNB-75) of 7.28 µM, a TGI (MDA-MB-435 [1]) of 3.71 µM and a GI50 (SW-620 [2]) of 1.86 µM. For the same molecule, the CC50 (SW-620 [2]; [15]) was 6.72 µM, the TGI (RPMI-8226 [3]) was 17.9 µM and the GI50 (IGROV-1) was 1.8 µM. The CC50 (IGROV-1; [15]) was 7.28 µM, the GI50 (LOX IMVI) was 1.68 µM and the CC50 (LOX IMVI; [15]) was 5.55 µM. For the same molecule, the TGI (HOP-62) was 4.49 µM, the GI50 (786-0 [4]) was 2.16 µM and the CC50 (786-0 [4]; [15]) was 31.8 µM. It also gave a TGI (SF-268 [5]) of 9.14 µM, a GI50 (SF-268 [6]) of 2.83 µM and a CC50 (SF-268 [6]; [15]) of 47.2 µM. The TGI (SW-620 [7]) was 3.53 µM, the TGI (EKVX) was 5.1 µM and the TGI (TK-10) was 8.19 µM. It also gave a GI50 (RPMI-8226 [8]) of 2.42 µM, a CC50 (RPMI-8226 [8]; [15]) of over 100 µM and a GI50 (HOP-92 [9]) of 2.06 µM. It also gave a CC50 (HOP-92 [9]; [15]) of 8.6 µM, a TGI (HCT-116) of 7.32 µM and a TGI (OVCAR-5) of 3.41 µM. The GI50 (NCI-H322M) was 1.57 µM, the CC50 (NCI-H322M; [15]) was 5.56 µM and the TGI (DU-145) was 8.53 µM. The GI50 (T47D) was 3.05 µM, the CC50 (T47D; [15]) was over 100 µM and the TGI (HOP-92 [10]) was 4.2 µM. For the same molecule, the GI50 (SF-539) was 1.25 µM, the CC50 (SF-539; [15]) was 6.1 µM and the TGI (UACC-257) was 12.1 µM. For the same molecule, the GI50 (SK-MEL-5) was 1.75 µM, the CC50 (SK-MEL-5; [15]) was 5.79 µM and the GI50 (MDA-MB-435 [11]) was 1.86 µM. It also gave a CC50 (MDA-MB-435 [11]; [15]) of 7.39 µM, a TGI (786-0 [12]) of 5.35 µM and a TGI (U-251) of 3.97 µM. For the same molecule, the GI50 (NCI-H226) was 1.97 µM, the CC50 (NCI-H226; [15]) was 37.3 µM and the GI50 (MOLT-4) was 2.49 µM. It also gave a CC50 (MOLT-4; [15]) of over 100 µM, a TGI (MDA-MB-231) of 3.31 µM and a GI50 (SN12C) of 1.64 µM. For the same molecule, the CC50 (SN12C; [15]) was 5.63 µM, the TGI (UO-31) was 4.17 µM and the GI50 (M14) was 2.27 µM. For the same molecule, the CC50 (M14; [15]) was 23 µM, the TGI (HCT-15) was 3.79 µM and the GI50 (BT-549) was 2 µM. It also gave a CC50 (BT-549; [15]) of 9.92 µM, a GI50 (KM12) of 2.02 µM and a CC50 (KM12; [15]) of 14.9 µM. The TGI (OVCAR-3) was 4.45 µM.

With `Cc1ccc(-c2nc3c(c(-c4ccccc4)nn3-c3ccccc3)c(-c3ccc(O)cc3)c2C#N)cc1` the Activity (RS4-11 [13]) was “Active” and the Activity (RS4-11 [14]) was “Active”.
